The results in this text go back to patent publication US10759812B2, “Thienopyrimidine derivative and use thereof in medicine” (SUNSHINE LAKE PHARMA CO., LTD., priority 2017, dated 2020).

One test addresses ACC1 (Homo sapiens (Human), UniProt Q13085). The test can be described thus: Acetyl-CoA carboxylase inhibition activity assay in vitro (ADP-Glo kinase assay), ACC1. The test is classed as biochemical. The conditions noted are these: 1 nM ACC1, 5% DMSO, 25° C. On the procedure: (§1) The inhibitory action of the compounds against ACC1 or ACC2 was determined by using ADP-Clo™ kinase assay kit from Promega. The ADP-Glo™ Kinase Assay is a luminescent ADP detection assay to measure enzymatic activity by quantifying the amount of ADP produced during an enzyme reaction. The assay is performed in two steps; first, after the enzyme reaction, an equal volume of ADP-Glo™ Reagent is added to terminate the reaction and deplete the remaining ATP. Second, the Kinase Detection Reagent is added to simultaneously convert ADP to ATP and allow the newly synthesized ATP to be measured using a luciferase/luciferin reaction. Luminescence can be correlated to ADP concentrations by using an ATP-to-ADP conversion curve.
(§2) The detailed procedure is as follows. • a. 4.5 μL/well of ACC1/ACC2 working solution (2.22 nM) was added to a 384-well reaction plate (PerkinElmer, 6007290). • b. The compound (10 mM) was diluted with 100% DMSO 500 times to a concentration of 20 μM, the dilute compound solution was diluted 1:3 in succession in a 384-well dilution plate (3657, corning) to gradient concentrations of 20, 6.67, 2.22, 0.74, 0.25, 0.082, 0.027, 0.009, 0.003, 0.001, 0 μM; • c. 0.5 μL/well of the compound solution (prepared in step b) was added to the 384-well reaction plate (prepared in step a), the plate was centrifuged at 1000 rpm and incubated at 25° C. for 15 minutes; • d. 0.5 μL/well of substrate mixture (ATP (10 mM), Acetyl-CoA (2 mM), NaHCO3 (1000 mM)) was transfered into the 384-well reaction plate, the plate was centrifuged at 1000 rpm and incubated at 25° C. for 30 minutes. The compound final gradient concentrations in the reaction system were 1000, 333.3, 111.1, 37.04, 12.35, 4.12, 1.37, 0.46, 0.15, 0.05, 0 nM. The final concentration of DMSO was 5%; the final concentration of ACC1/ACC2 is 1 nM. • e. 10 μL/well of ADP-Glo solution was transfered into the 384-well reaction plate, the plate was centrifuged at 1000 rpm and incubated at 25° C. for 40 minutes. • f. 20 µL/well of kinase detection reagent was transfered into the 384-well reaction plate, the plate was centrifuged at 1000 rpm and incubated at 25° C. for 40 minutes. • g. Relative Light Units (RLU) was read on an Envision multifunction plate reader. The signal intensity represents the level of ACC1/ACC2 kinase activity.
(§3) The ACC1/ACC2 working solution, substrate mixture, ADP-Glo solution and kinase detection reagent used in the assay are all prepared by using 1× kinase reaction buffer [hydroxyethylpiperazineethanesulfonic acid (HEPES, 50 mM), MgCl2 (2 mM), lauryl polyglycol ether (BRIJ-35, 0.01%), potassium citrate (2 mM), bovine serum albumin (BSA, 50 μg/mL), dithiothreitol (DTT, 2 mM)].
(§4) Data for each concentration, as well as the positive and negative controls were averaged, and the standard deviation was calculated. Percent inhibition was calculated by the formula: 100×(average negative control−compound)/(average negative control−average positive control). The IC50 for each compound was calculated by fitting the data with a nonlinear regression equation: Y=Bottom+(Top−Bottom)/(1+10^((Log IC50−X)×HillSlope)), where X is the log of compound concentration and Y is percent inhibition. 0.1 μM ND-630 was as positive control in the assay.
Background: ADP-Glo first removes unused ATP, then detects ADP through luciferase.

A further test has as its target ACC2 (Homo sapiens (Human), UniProt O00763). The test can be described thus: Acetyl-CoA carboxylase inhibition activity assay in vitro (ADP-Glo kinase assay), ACC2. The conditions noted are these: 1 nM ACC2, 5% DMSO, 25° C. The class given is biochemical. On the procedure: as §1, §2, §3, §4

pIC50: −log10 of the molar value.

Chain of ACC2 (O00763 whole entry, species assumed): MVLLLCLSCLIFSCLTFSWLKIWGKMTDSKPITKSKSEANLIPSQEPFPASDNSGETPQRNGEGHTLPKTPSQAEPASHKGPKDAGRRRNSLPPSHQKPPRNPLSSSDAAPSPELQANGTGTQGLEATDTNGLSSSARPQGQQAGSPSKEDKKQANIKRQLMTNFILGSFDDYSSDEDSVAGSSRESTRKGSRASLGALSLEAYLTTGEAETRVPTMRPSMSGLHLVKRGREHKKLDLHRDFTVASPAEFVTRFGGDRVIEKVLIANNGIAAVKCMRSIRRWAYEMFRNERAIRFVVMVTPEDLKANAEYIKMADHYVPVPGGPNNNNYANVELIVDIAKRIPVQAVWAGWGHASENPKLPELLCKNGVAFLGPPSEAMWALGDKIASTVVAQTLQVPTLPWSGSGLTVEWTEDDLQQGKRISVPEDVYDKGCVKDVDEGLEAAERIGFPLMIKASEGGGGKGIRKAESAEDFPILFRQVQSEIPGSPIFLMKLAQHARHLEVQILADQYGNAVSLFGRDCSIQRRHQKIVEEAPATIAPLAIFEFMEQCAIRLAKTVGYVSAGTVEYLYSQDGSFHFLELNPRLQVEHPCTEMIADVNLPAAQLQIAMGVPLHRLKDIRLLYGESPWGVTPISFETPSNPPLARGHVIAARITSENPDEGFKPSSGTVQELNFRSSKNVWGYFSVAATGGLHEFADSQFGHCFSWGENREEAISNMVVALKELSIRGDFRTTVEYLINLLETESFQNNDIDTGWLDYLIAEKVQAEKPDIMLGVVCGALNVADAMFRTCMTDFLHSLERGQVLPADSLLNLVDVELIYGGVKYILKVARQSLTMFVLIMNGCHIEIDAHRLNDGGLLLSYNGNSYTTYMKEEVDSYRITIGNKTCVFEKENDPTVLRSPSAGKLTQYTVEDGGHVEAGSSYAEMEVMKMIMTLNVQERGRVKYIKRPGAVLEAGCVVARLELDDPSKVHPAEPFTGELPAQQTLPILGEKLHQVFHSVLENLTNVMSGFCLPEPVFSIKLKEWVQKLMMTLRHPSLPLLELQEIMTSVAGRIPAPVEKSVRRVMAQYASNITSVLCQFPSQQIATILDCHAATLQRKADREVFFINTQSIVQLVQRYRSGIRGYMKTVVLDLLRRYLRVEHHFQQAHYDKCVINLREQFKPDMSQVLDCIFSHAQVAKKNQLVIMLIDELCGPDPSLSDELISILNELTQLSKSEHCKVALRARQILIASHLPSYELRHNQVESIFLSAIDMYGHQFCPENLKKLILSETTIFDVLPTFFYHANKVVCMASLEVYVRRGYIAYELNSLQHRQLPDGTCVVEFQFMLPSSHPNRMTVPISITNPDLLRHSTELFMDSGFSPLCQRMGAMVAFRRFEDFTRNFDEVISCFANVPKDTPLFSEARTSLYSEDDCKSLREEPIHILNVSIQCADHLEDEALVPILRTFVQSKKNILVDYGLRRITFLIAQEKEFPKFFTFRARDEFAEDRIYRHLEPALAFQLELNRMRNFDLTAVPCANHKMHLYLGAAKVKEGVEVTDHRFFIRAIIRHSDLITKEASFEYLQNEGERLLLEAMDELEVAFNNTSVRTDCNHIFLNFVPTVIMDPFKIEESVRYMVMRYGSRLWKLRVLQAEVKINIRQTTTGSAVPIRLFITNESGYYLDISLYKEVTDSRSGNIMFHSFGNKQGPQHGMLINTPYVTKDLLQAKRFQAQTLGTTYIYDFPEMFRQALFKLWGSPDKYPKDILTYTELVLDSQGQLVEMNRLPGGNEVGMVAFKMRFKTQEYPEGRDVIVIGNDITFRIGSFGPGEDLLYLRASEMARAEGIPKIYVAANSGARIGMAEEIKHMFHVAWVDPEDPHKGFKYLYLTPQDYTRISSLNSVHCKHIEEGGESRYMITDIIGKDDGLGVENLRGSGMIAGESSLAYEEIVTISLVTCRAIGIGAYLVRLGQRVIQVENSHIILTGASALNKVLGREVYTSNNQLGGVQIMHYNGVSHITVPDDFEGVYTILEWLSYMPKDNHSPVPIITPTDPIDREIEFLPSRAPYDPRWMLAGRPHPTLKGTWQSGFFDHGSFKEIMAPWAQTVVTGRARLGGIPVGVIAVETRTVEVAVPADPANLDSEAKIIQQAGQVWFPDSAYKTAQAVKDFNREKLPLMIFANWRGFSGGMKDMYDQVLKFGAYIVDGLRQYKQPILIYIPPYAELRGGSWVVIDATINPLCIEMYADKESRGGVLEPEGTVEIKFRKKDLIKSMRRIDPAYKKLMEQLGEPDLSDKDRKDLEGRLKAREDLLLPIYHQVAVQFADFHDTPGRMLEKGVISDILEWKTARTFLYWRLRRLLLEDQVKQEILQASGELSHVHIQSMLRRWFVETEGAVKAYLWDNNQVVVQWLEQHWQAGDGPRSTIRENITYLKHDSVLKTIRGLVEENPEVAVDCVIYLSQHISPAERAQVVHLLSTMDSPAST

For orientation: pIC50 means −log10 of the IC50, conventionally taken in molar units. Low values mean a large IC50, high ones a small IC50. For `COc1ccccc1C(Cn1c(=O)n(C(C)(C)C(=O)O)c(=O)c2c(C)c(-c3ncco3)sc21)O[C@H]1C[C@H]2C[C@@H](O)C[C@H]2C1` (stereo partly drawn) [Example 1, 2-[1-[2-[[(3aS,6aR)-5-hydroxy-1,2,3,3a,4,5,6,6a-octahydropentalen-2-yl]oxy]-2-(2-methoxyphenyl)ethyl]-5-methyl-6-oxazol-2-yl-2,4-dioxo-thieno[2,3-d]pyrimid-3-yl]-2-methyl-propanoic acid], the negative-log IC50 (pIC50) at ACC1 is 9.03.

Take `COc1ccccc1C(Cn1c(=O)n(C(C)(C)C(=O)O)c(=O)c2c(C)c(-c3ncco3)sc21)OC1CC2CN(S(C)(=O)=O)CC2C1` (centres unmarked) [Example 10, 2-[1-[2-(2-methoxyphenyl)-2-[(2-methylsulfonyl-3,3a,4,5,6,6a-hexahydro-1H-cyclopenteno[c]pyrrole-5-yl)oxy]ethyl]-5-methyl-6-oxazol-2-yl-2,4-dioxo-thieno[2,3-d]pyrimid-3-yl]-2-methyl-propanoic acid]: the negative-log IC50 (pIC50) is 9.09 against ACC1 and 8.75 against ACC2.

As for `COc1ccccc1C(Cn1c(=O)n(C(C)(C)C(=O)O)c(=O)c2c(C)c(-c3ncco3)sc21)OC1CC2COCC2C1` (centres unmarked) [Example 13, 2-[1-[2-(3,3a,4,5,6,6a-hexahydro-1H-cyclopenteno[c]furan5-oxy)-2-(2-methoxyphenyl)ethyl)-5-methyl-6-oxazol-2-yl-2,4-dioxo-thieno[2,3-d]pyrimid-3-yl]-2-methyl-propanoic acid], the pIC50 against ACC1 was 8.75; on ACC2 it was 8.37.

In turn, `COc1ccccc1C(Cn1c(=O)n(C(C)(C)C(=O)O)c(=O)c2c(C)c(-c3ncco3)sc21)O[C@@H]1C[C@@H]2CC(C)(O)C[C@@H]2C1` (stereo partly drawn) [Example 14, 2-[1-[2-[[(3aR,6aS)-5-hydroxy-5-methyl-2,3,3a,4,6,6a-hexahydro-1H-pentalen-2-yl]oxy]-2-(2-methoxyphenyl)ethyl]-5-methyl-6-oxazol-2-yl-2,4-dioxo-thieno[2,3-d]pyrimid-3-yl]-2-methyl-propanoic acid] had a negative logarithm of the IC50 (pIC50) at ACC1 of 8.84.

On to `COc1ccccc1C(Cn1c(=O)n(C(C)(C)C(=O)O)c(=O)c2c(C)c(-c3ncco3)sc21)O[C@H]1C[C@H]2CC(C#N)C[C@H]2C1` (some centres unmarked) [Example 15, 2-[1-[2-[(5-cyano-1,2,3,3a,4,5,6,6a-octahydropentalen-2-yl)oxy]-2-(2-methoxyphenyl)ethyl]-5-methyl-6-oxazol-2-yl-2,4-dioxo-thieno[2,3-d]pyrimid-3-yl]-2-methyl-propanoic acid], for which the pIC50 on ACC1 was 8.79; at ACC2, 8.19.

Take `COc1ccccc1C(Cn1c(=O)n(C(C)(C)C(=O)O)c(=O)c2c(C)c(-c3ncco3)sc21)O[C@H]1C[C@H]2C[C@H](F)C[C@H]2C1` (stereo partly drawn) [Example 17, 2-[1-[2-[[(3aR,6aS)-5-fluoro-1,2,3,3a,4,5,6,6a-octahydropentalen-2-yl]oxy]-2-(2-methoxyphenyl)ethyl)-5-methyl-6-oxazol-2-yl-2,4-dioxo-thieno[2,3-d]pyrimid-3-yl]-2-methyl-propanoic acid]: the pIC50 against ACC1 was 8.65.

The compound `COc1ccccc1C(Cn1c(=O)n(C(C)(C)C(=O)O)c(=O)c2c(C)c(-c3ncco3)sc21)O[C@@H]1C[C@@H]2CC(O)(C(F)(F)F)C[C@@H]2C1` (stereo partly drawn) [Example 18, 2-[1-[2-[[(3aR,6aS)-5-hydroxy-5-(trifluoromethyl)-2,3,3a,4,6,6a-hexahydro-1H-pentalen-2-yl]oxy]-2-(2-methoxyphenyl)ethyl]-5-methyl-6-oxazol-2-yl-2,4-dioxo-thieno[2,3-d]pyrimid-3-yl]-2-methyl-propanoic acid] gave a negative-log IC50 (pIC50) on ACC1 of 9.05.

Regarding `CCC1(O)C[C@H]2C[C@@H](OC(Cn3c(=O)n(C(C)(C)C(=O)O)c(=O)c4c(C)c(-c5ncco5)sc43)c3ccccc3OC)C[C@H]2C1` (stereo partly drawn) [Example 19, 2-[1-[2-[[(3aR,6aS)-5-ethyl-5-hydroxy-2,3,3a,4,6,6a-hexahydro-1H-pentalen-2-yl]oxy]-2-(2-methoxyphenyl)ethyl)-5-methyl-6-oxazol-2-yl-2,4-dioxo-thieno[2,3-d]pyrimid-3-yl]-2-methyl-propanoic acid], the negative-log IC50 (pIC50) was 9.06 against ACC1 and 8.26 against ACC2.

On to `COc1ccccc1C(Cn1c(=O)n(C(C)(C)C(=O)O)c(=O)c2c(C)c(-c3ncco3)sc21)O[C@@H]1C[C@@H]2CC(F)(F)C[C@@H]2C1` (stereo partly drawn) [Example 21, 2-[1-[2-[[(3aR,6aS)-5,5-difluoro-2,3,3a,4,6,6a-hexahydro-1H-pentalen-2-yl]oxy]-2-(2-methoxyphenyl)ethyl)-5-methyl-6-oxazol-2-yl-2,4-dioxo-thieno[2,3-d]pyrimid-3-yl]-2-methyl-propanoic acid], for which the negative logarithm of the IC50 (pIC50) against ACC1 was 8.84; on ACC2 it was 8.39.

Turning to `COc1ccccc1C(Cn1c(=O)n(C(C)(C)C(=O)O)c(=O)c2c(C)c(-c3ncco3)sc21)O[C@H]1C[C@H]2CC(O)C(O)[C@H]2C1` (stereo partly drawn) [Example 22, 2-[1-[2-[[(2S,3aS,6aR)-4,5-dihydroxy-1,2,3,3a,4,5,6,6a-octahydropentalen-2-yl]oxy]-2-(2-methoxyphenyl)ethyl]-5-methyl-6-oxazol-2-yl-2,4-dioxo-thieno[2,3-d]pyrimid-3-yl]-2-methyl-propanoic acid], the results for the pIC50 at ACC1 and on ACC2 were 8.81 and 8.07, respectively.

`COc1ccccc1C(Cn1c(=O)n(C(C)(C)C(=O)O)c(=O)c2c(C)c(-c3ncco3)sc21)O[C@@H]1C[C@@H]2CC(O)(C3CC3)C[C@@H]2C1` (stereo partly drawn) [Example 23, 2-[1-[2-[[(3aR,6aS)-5-cyclopropyl-5-hydroxy-2,3,3a,4,6,6a-hexahydro-1H-pentalen-2-yl]oxy]-2-(2-methoxyphenyl)ethyl]-5-methyl-6-oxazol-2-yl-2,4-dioxo-thieno[2,3-d]pyrimid-3-yl]-2-methyl-propanoic acid]: the pIC50 is 9.17 against ACC1 and 8.95 on ACC2.

Turning to `COc1ccccc1C(Cn1c(=O)n(C(C)(C)C(=O)O)c(=O)c2c(C)c(-c3ncco3)sc21)O[C@@H]1C[C@@H]2CC(O)(C#N)C[C@@H]2C1` (stereo partly drawn) [Example 26, 2-[1-[2-[[(3aR,6aS)-5-cyano-5-hydroxy-2,3,3a,4,6,6a-hexahydro-1H-pentalen-2-yl]oxy]-2-(2-methoxyphenyl)ethyl]-5-methyl-6-oxazol-2-yl-2,4-dioxo-thieno[2,3-d]pyrimid-3-yl]-2-methyl-propanoic acid], the negative logarithm of the IC50 (pIC50) against ACC1 is 8.84; on ACC2, 8.27.

`COc1ccccc1C(Cn1c(=O)n(C(C)(C)C(=O)O)c(=O)c2c(C)c(-c3ncco3)sc21)O[C@@H]1C[C@@H]2CC(O)(CC#N)C[C@@H]2C1` (stereo partly drawn) [Example 27, 2-[1-[2-[[(3aS,6aR)-5-(cyanomethyl)-5-hydroxy-2,3,3a,4,6,6a-hexahydro-1H-pentalen-2-yl]oxy]-2-(2-methoxyphenyl)ethyl]-5-methyl-6-oxazol-2-yl-2,4-dioxo-thieno[2,3-d]pyrimid-3-yl]-2-methyl-propanoic acid]: the figures for the pIC50 at ACC1 and against ACC2 were 8.81 and 8.32, respectively.

As for `COc1ccccc1C(Cn1c(=O)n(C(C)(C)C(=O)O)c(=O)c2c(C)c(-c3ncco3)sc21)O[C@@H]1C[C@@H]2C[C@@H](S(C)(=O)=O)C[C@@H]2C1` (stereo partly drawn) [Example 29, 2-[1-[2-[[(3aR,6aS)-5-methylsulfonyl-1,2,3,3a,4,5,6,6a-octahydropentalen-2-yl]oxy]-2-(2-methoxyphenyl)ethyl]-5-methyl-6-oxazol-2-yl-2,4-dioxo-thieno[2,3-d]pyrimid-3-yl]-2-methyl-propanoic acid], the negative-log IC50 (pIC50) against ACC1 was 9.33; against ACC2, 8.66.

As for `COc1ccccc1C(Cn1c(=O)n(C(C)(C)C(=O)O)c(=O)c2c(C)c(-c3ncco3)sc21)O[C@H]1C[C@H]2CO[C@@H](C1)O2` (some centres unmarked) [Example 32], the negative logarithm of the IC50 (pIC50) is 8.92 against ACC1 and 8.56 against ACC2.
